Source: PMC2654718 (Biochemistry, 2009)

Legend:
[1] = test system: serum vitamin D binding protein; details: cited from earlier work
[2] = mice; cited from earlier work
VDR-LBD = target: T1, VDR-LBD (Homo sapiens, UniProt P11473, DEL165-215); assay: Isothermal titration calorimetry of SRC2-3 peptides with VDR-LBD; details: 25 °C, 20 mM HEPES pH 7.5, 150 mM NaCl; for n: ITC stoichiometry; for ΔH: ITC
T1 sequence (P11473 with tags, fused parts or gaps DEL165-215 limits assumed): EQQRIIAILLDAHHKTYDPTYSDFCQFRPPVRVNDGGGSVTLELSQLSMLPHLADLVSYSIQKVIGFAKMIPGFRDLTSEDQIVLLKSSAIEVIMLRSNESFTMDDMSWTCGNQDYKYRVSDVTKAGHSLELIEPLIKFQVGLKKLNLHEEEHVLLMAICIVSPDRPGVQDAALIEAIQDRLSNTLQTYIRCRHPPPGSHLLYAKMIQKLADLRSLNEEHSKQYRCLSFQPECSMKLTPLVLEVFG

MBP-VDR-LBDmt = target: T2, MBP-VDR-LBDmt (Homo sapiens, UniProt P11473, DEL165-215); assay: Fluorescence polarization peptide binding assay; details: FP
T2 sequence (P11473 with tags, fused parts or gaps DEL165-215 limits assumed): T1 sequence (P11473 with tags, fused parts or gaps DEL165-215 limits assumed)

CCC(CC)(c1ccc(OCC(O)CO)c(C)c1)c1ccc(OCC(O)C(C)(C)C)c(C)c1 (centres unmarked) [LG190178]
Binding to serum vitamin D binding protein (in words) [1]: does not bind
Influence on calcium serum levels (in words) [2]: no influence

CC(C)C[C@H](NC(=O)[C@H](C)NC(=O)[C@H](CC(N)=O)NC(=O)[C@H](CCC(=O)O)NC(=O)[C@H](CCCCN)NC(=O)[C@H](CCCCN)NC(=O)[C@H](CCCCN)NC(=O)[C@@H](N)CSC1CC(=O)N(CCNS(=O)(=O)c2ccc(C3=c4cc5c6c(c4Oc4c3cc3c7c4CCCN7CCC3)CCC[N+]=6CCC5)c(S(=O)(=O)[O-])c2)C1=O)C(=O)N[C@@H](CC(C)C)C(=O)N[C@@H](CCCNC(=N)N)C(=O)N[C@@H](Cc1ccc(O)cc1)C(=O)N[C@@H](CC(C)C)C(=O)N[C@@H](CC(C)C)C(=O)N[C@@H](CC(=O)O)C(=O)N[C@@H](CCCCN)C(=O)N[C@@H](CC(=O)O)C(=O)N[C@@H](CC(=O)O)C(=O)N[C@H](C(=O)N[C@@H](CCCCN)C(=O)N[C@@H](CC(=O)O)C(=O)O)[C@@H](C)O (some centres unmarked) [SRC2-3_Texas-Red]
n (VDR-LBD): 0.93±0.04
ΔH (VDR-LBD): -2.2 ± 0.12 kcal/mol

CC(C)C[C@H](NC(=O)[C@H](C)NC(=O)[C@H](CC(N)=O)NC(=O)[C@H](CCC(=O)O)NC(=O)[C@H](CCCCN)NC(=O)[C@H](CCCCN)NC(=O)[C@H](CCCCN)NC(=O)[C@@H](N)CS)C(=O)N[C@@H](CC(C)C)C(=O)N[C@@H](CCCNC(=N)N)C(=O)N[C@@H](Cc1ccc(O)cc1)C(=O)N[C@@H](CC(C)C)C(=O)N[C@@H](CC(C)C)C(=O)N[C@@H](CC(=O)O)C(=O)N[C@@H](CCCCN)C(=O)N[C@@H](CC(=O)O)C(=O)N[C@@H](CC(=O)O)C(=O)N[C@H](C(=O)N[C@@H](CCCCN)C(=O)N[C@@H](CC(=O)O)C(=O)O)[C@@H](C)O [SRC2-3]
n (VDR-LBD): 1.02±0.02
ΔH (VDR-LBD): -6.7 ± 0.3 kcal/mol
Binding affinity towards VDR (in words) (MBP-VDR-LBDmt; in the presence of ligand): High affinity binding
Binding in the absence of ligand (in words) (MBP-VDR-LBDmt; no ligand, no plateau at higher protein concentrations): weak or no binding
